{
  "source": "PubChem BioAssay AID1963849",
  "about": "(Molecular Pharmacology Branch, DTP, NCI, 2024);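 note: spheroids exposed to drugs for one week before measurement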;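 for viability, T/C: percent viability relative to DMSO vehicle control taken as 100%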",
  "test_system": "299254-011-R-J1-PDC complex spheroid viability",
  "experiment": "Anticancer human tumor 299254-011-R-J1-PDC patient-derived melanoma cell line growth inhibition [POLQ]",
  "details": "for IC50: curve of first compound; for viability, T/C: stronger effect = lower value",
  "outline": "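Patient-derived tumour cells were co-cultured with HUVEC and mesenchymal stem cells as multicellular spheroids at 37 °C. They were treated with POLQ inhibitors (novobiocin, ART-558, RP6685) alone or combined with other agents. Top concentrations were at or near clinical Cmax (otherwise 10 microM; SN-38 at 1 microM), decreasing in half-log steps.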",
  "key": {"[1]": {"details": "second compound 0.0316 µM, first compound 0.0316 µM"}, "[2]": {"details": "second compound 0.0316 µM, first compound 0.1 µM"}, "[3]": {"details": "second compound 0.0316 µM, first compound 0.316 µM"}, "[4]": {"details": "second compound 0.0316 µM, first compound 1 µM"}, "[5]": {"details": "second compound 0.0316 µM, first compound 3.16 µM"}, "[6]": {"details": "second compound 0.0316 µM, first compound 10 µM"}, "[7]": {"details": "second compound 0.1 µM, first compound 0.0316 µM"}, "[8]": {"details": "second compound 0.1 µM, first compound 0.1 µM"}, "[9]": {"details": "second compound 0.1 µM, first compound 0.316 µM"}, "[10]": {"details": "second compound 0.1 µM, first compound 1 µM"}, "[11]": {"details": "second compound 0.1 µM, first compound 3.16 µM"}, "[12]": {"details": "second compound 0.1 µM, first compound 10 µM"}, "[13]": {"details": "second compound 0.316 µM, first compound 0.0316 µM"}, "[14]": {"details": "second compound 0.316 µM, first compound 0.1 µM"}, "[15]": {"details": "second compound 0.316 µM, first compound 0.316 µM"}, "[16]": {"details": "second compound 0.316 µM, first compound 1 µM"}, "[17]": {"details": "second compound 0.316 µM, first compound 3.16 µM"}, "[18]": {"details": "second compound 0.316 µM, first compound 10 µM"}, "[19]": {"details": "second compound 1 µM, first compound 0.0316 µM"}, "[20]": {"details": "second compound 1 µM, first compound 0.1 µM"}, "[21]": {"details": "second compound 1 µM, first compound 0.316 µM"}, "[22]": {"details": "second compound 1 µM, first compound 1 µM"}, "[23]": {"details": "second compound 1 µM, first compound 3.16 µM"}, "[24]": {"details": "second compound 1 µM, first compound 10 µM"}, "[25]": {"details": "second compound 3.16 µM, first compound 0.0316 µM"}, "[26]": {"details": "second compound 3.16 µM, first compound 0.1 µM"}, "[27]": {"details": "second compound 3.16 µM, first compound 0.316 µM"}, "[28]": {"details": "second compound 3.16 µM, first compound 1 µM"}, "[29]": {"details": "second compound 3.16 µM, first compound 3.16 µM"}, "[30]": {"details": "second compound 3.16 µM, first compound 10 µM"}, "[31]": {"details": "second compound 10 µM, first compound 0.0316 µM"}, "[32]": {"details": "second compound 10 µM, first compound 0.1 µM"}, "[33]": {"details": "second compound 10 µM, first compound 0.316 µM"}, "[34]": {"details": "second compound 10 µM, first compound 1 µM"}, "[35]": {"details": "second compound 10 µM, first compound 3.16 µM"}, "[36]": {"details": "second compound 10 µM, first compound 10 µM"}},
  "data": [
    {"smiles": "C=CC(=O)N1CCN(c2nc(=O)n(-c3c(C)ccnc3C(C)C)c3nc(-c4c(O)cccc4F)c(F)cc23)C(C)C1", "note": "(centres undefined) + Nc1ccc(C#CCN(C(=O)Cc2ncc(C(F)(F)F)cc2C(F)(F)F)c2ccc(F)cc2)nn1", "values": [
      {"measurement": "IC50", "setting": "second compound 0.0316 µM", "value": "> 10000", "unit": "nM"},
      {"measurement": "IC50", "setting": "second compound 0.1 µM", "value": "> 10000", "unit": "nM"},
      {"measurement": "IC50", "setting": "second compound 0.316 µM", "value": "> 10000", "unit": "nM"},
      {"measurement": "IC50", "setting": "second compound 1 µM", "value": "> 10000", "unit": "nM"},
      {"measurement": "IC50", "setting": "second compound 3.16 µM", "value": "> 10000", "unit": "nM"},
      {"measurement": "IC50", "setting": "second compound 10 µM", "value": "> 10000", "unit": "nM"},
      {"measurement": "viability, T/C", "setting": "[1]", "value": 77.4, "unit": "%"},
      {"measurement": "viability, T/C", "setting": "[2]", "value": 83.6, "unit": "%"},
      {"measurement": "viability, T/C", "setting": "[3]", "value": 80, "unit": "%"},
      {"measurement": "viability, T/C", "setting": "[4]", "value": 84.9, "unit": "%"},
      {"measurement": "viability, T/C", "setting": "[5]", "value": 88.7, "unit": "%"},
      {"measurement": "viability, T/C", "setting": "[6]", "value": 70.2, "unit": "%"},
      {"measurement": "viability, T/C", "setting": "[7]", "value": 86.9, "unit": "%"},
      {"measurement": "viability, T/C", "setting": "[8]", "value": 75.2, "unit": "%"},
      {"measurement": "viability, T/C", "setting": "[9]", "value": 80.7, "unit": "%"},
      {"measurement": "viability, T/C", "setting": "[10]", "value": 86.2, "unit": "%"},
      {"measurement": "viability, T/C", "setting": "[11]", "value": 81.7, "unit": "%"},
      {"measurement": "viability, T/C", "setting": "[12]", "value": 76.9, "unit": "%"},
      {"measurement": "viability, T/C", "setting": "[13]", "value": 93.5, "unit": "%"},
      {"measurement": "viability, T/C", "setting": "[14]", "value": 76.9, "unit": "%"},
      {"measurement": "viability, T/C", "setting": "[15]", "value": 66.2, "unit": "%"},
      {"measurement": "viability, T/C", "setting": "[16]", "value": 82.2, "unit": "%"},
      {"measurement": "viability, T/C", "setting": "[17]", "value": 77.9, "unit": "%"},
      {"measurement": "viability, T/C", "setting": "[18]", "value": 78.4, "unit": "%"},
      {"measurement": "viability, T/C", "setting": "[19]", "value": 96.2, "unit": "%"},
      {"measurement": "viability, T/C", "setting": "[20]", "value": 78.1, "unit": "%"},
      {"measurement": "viability, T/C", "setting": "[21]", "value": 81.6, "unit": "%"},
      {"measurement": "viability, T/C", "setting": "[22]", "value": 79.1, "unit": "%"},
      {"measurement": "viability, T/C", "setting": "[23]", "value": 92.7, "unit": "%"},
      {"measurement": "viability, T/C", "setting": "[24]", "value": 79, "unit": "%"},
      {"measurement": "viability, T/C", "setting": "[25]", "value": 83.1, "unit": "%"},
      {"measurement": "viability, T/C", "setting": "[26]", "value": 80, "unit": "%"},
      {"measurement": "viability, T/C", "setting": "[27]", "value": 74.6, "unit": "%"},
      {"measurement": "viability, T/C", "setting": "[28]", "value": 82.2, "unit": "%"},
      {"measurement": "viability, T/C", "setting": "[29]", "value": 85.9, "unit": "%"},
      {"measurement": "viability, T/C", "setting": "[30]", "value": 64.5, "unit": "%"},
      {"measurement": "viability, T/C", "setting": "[31]", "value": 90.3, "unit": "%"},
      {"measurement": "viability, T/C", "setting": "[32]", "value": 80.8, "unit": "%"},
      {"measurement": "viability, T/C", "setting": "[33]", "value": 73.5, "unit": "%"},
      {"measurement": "viability, T/C", "setting": "[34]", "value": 79.1, "unit": "%"},
      {"measurement": "viability, T/C", "setting": "[35]", "value": 79.7, "unit": "%"},
      {"measurement": "viability, T/C", "setting": "[36]", "value": 77.4, "unit": "%"}
    ]},
    {"smiles": "CC1COCCN1c1cc(-c2ccnn2C)c2ccnc(-c3ccn[nH]3)c2n1", "note": "(centres undefined) + Nc1ccc(C#CCN(C(=O)Cc2ncc(C(F)(F)F)cc2C(F)(F)F)c2ccc(F)cc2)nn1", "values": [
      {"measurement": "IC50", "setting": "second compound 0.0316 µM", "value": 311, "unit": "nM"},
      {"measurement": "IC50", "setting": "second compound 0.1 µM", "value": 226, "unit": "nM"},
      {"measurement": "IC50", "setting": "second compound 0.316 µM", "value": 295, "unit": "nM"},
      {"measurement": "IC50", "setting": "second compound 1 µM", "value": 264, "unit": "nM"},
      {"measurement": "IC50", "setting": "second compound 3.16 µM", "value": 179, "unit": "nM"},
      {"measurement": "IC50", "setting": "second compound 10 µM", "value": 160, "unit": "nM"},
      {"measurement": "viability, T/C", "setting": "[1]", "value": 87.8, "unit": "%"},
      {"measurement": "viability, T/C", "setting": "[2]", "value": 80.3, "unit": "%"},
      {"measurement": "viability, T/C", "setting": "[3]", "value": 43.7, "unit": "%"},
      {"measurement": "viability, T/C", "setting": "[4]", "value": 36.3, "unit": "%"},
      {"measurement": "viability, T/C", "setting": "[5]", "value": 22.3, "unit": "%"},
      {"measurement": "viability, T/C", "setting": "[6]", "value": 18.7, "unit": "%"},
      {"measurement": "viability, T/C", "setting": "[7]", "value": 102, "unit": "%"},
      {"measurement": "viability, T/C", "setting": "[8]", "value": 70.9, "unit": "%"},
      {"measurement": "viability, T/C", "setting": "[9]", "value": 41.9, "unit": "%"},
      {"measurement": "viability, T/C", "setting": "[10]", "value": 27.8, "unit": "%"},
      {"measurement": "viability, T/C", "setting": "[11]", "value": 23.2, "unit": "%"},
      {"measurement": "viability, T/C", "setting": "[12]", "value": 25.4, "unit": "%"},
      {"measurement": "viability, T/C", "setting": "[13]", "value": 102, "unit": "%"},
      {"measurement": "viability, T/C", "setting": "[14]", "value": 70.5, "unit": "%"},
      {"measurement": "viability, T/C", "setting": "[15]", "value": 50.4, "unit": "%"},
      {"measurement": "viability, T/C", "setting": "[16]", "value": 31.2, "unit": "%"},
      {"measurement": "viability, T/C", "setting": "[17]", "value": 28.1, "unit": "%"},
      {"measurement": "viability, T/C", "setting": "[18]", "value": 19.5, "unit": "%"},
      {"measurement": "viability, T/C", "setting": "[19]", "value": 88.7, "unit": "%"},
      {"measurement": "viability, T/C", "setting": "[20]", "value": 68.5, "unit": "%"},
      {"measurement": "viability, T/C", "setting": "[21]", "value": 43.8, "unit": "%"},
      {"measurement": "viability, T/C", "setting": "[22]", "value": 33.8, "unit": "%"},
      {"measurement": "viability, T/C", "setting": "[23]", "value": 31.2, "unit": "%"},
      {"measurement": "viability, T/C", "setting": "[24]", "value": 19.6, "unit": "%"},
      {"measurement": "viability, T/C", "setting": "[25]", "value": 84.7, "unit": "%"},
      {"measurement": "viability, T/C", "setting": "[26]", "value": 62.6, "unit": "%"},
      {"measurement": "viability, T/C", "setting": "[27]", "value": 36.3, "unit": "%"},
      {"measurement": "viability, T/C", "setting": "[28]", "value": 32.4, "unit": "%"},
      {"measurement": "viability, T/C", "setting": "[29]", "value": 19.9, "unit": "%"},
      {"measurement": "viability, T/C", "setting": "[30]", "value": 25.4, "unit": "%"},
      {"measurement": "viability, T/C", "setting": "[31]", "value": 82.5, "unit": "%"},
      {"measurement": "viability, T/C", "setting": "[32]", "value": 54.6, "unit": "%"},
      {"measurement": "viability, T/C", "setting": "[33]", "value": 42.6, "unit": "%"},
      {"measurement": "viability, T/C", "setting": "[34]", "value": 33.2, "unit": "%"},
      {"measurement": "viability, T/C", "setting": "[35]", "value": 20.7, "unit": "%"},
      {"measurement": "viability, T/C", "setting": "[36]", "value": 25.2, "unit": "%"}
    ]}
  ]
}
